Source: patent US4908363A, “Imidazole derivatives” (Hoffmann-La Roche Inc., priority 1987, dated 1990)

Columns and labels:
[1] = Edema-inhibiting properties in carrageen pleuritis; format: in vivo, male rats; conditions: 1 hour before and 5 hours after carrageen, 24 hours
Experimental: were tested for their edema-inhibiting properties in the animal test described hereinafter:
A pleuritis is produced in male rats (230-250 g), which receive feed and water ad libitum, by the injection of 0.2 ml of a 1% solution of carrageen in sterile, pyrogen-free sodium chloride solution into the right pleural cavity. The substance to be investigated, suspended in an aqueous vehicle (containing 0.5% carboxymethylcellulose, 0.9% sodium chloride, 0.37% Tween 80 and 0.86% benzyl alcohol), or the vehicle alone, are administered by intubation to the animals 1 hour before and 5 hours after the carrageen injection. Twenty-four (24) hours after the carrageen injection, the animals are killed by decapitation, left to bleed out and the pleural cavity is exposed by cutting through the ribs on both sides of the sternum. The exudate is removed from the pleural cavity by means of a pipette and its volume is determined. Thereupon, the pleural cavity is washed once with phosphate-buffered sodium chloride solution containing fetal bovine serum (1:1) and the wash solution is combined with the exudate. The total number of cells in the pleural cavity is determined using a "Coulter Counter" which is calibrated so that red blood corpuscles are not counted. Cell smears on glass plates can be produced directly from the exudate, fixed in methanol and colored for the differential counting of polymorphonuclear leucocytes (PMN) and macrophages; a total of 200 PMN and macrophages can be counted and the results expressed as a percentage of each type of cell present in the pleural exudate.

[2] = Acute toxicity, single oral administration; conditions: mouse, in vivo; single oral administration to mice
Source text: The following Table II contains data concerning the acute toxicity of the above three compounds (LD50 in the case of single oral administration to mice).

[3] = Inflammation-inhibiting activity in established Mycobacterium butyricum arthritis (paw volume, plasma fibrinogen, body weight); format: in vivo, male rats; conditions: by intubation each day over 7 days; for Paw volume change: vehicle 0.46 ± 0.08; for Body weight change: vehicle 13.2 ± 1.8; for Plasma Fibrinogen: vehicle 1233 ± 56
Experimental: Representative compounds of formula I were tested for their inflammation-inhibiting properties in the animal test described hereinafter:
0.1 ml of a 0.5% (weight/volume) suspension of heat-killed and dried Mycobacterium butyricum in heavy mineral oil, containing 0.2% digitionin, is injected into the base of the tail of male rats (120-140 g). The animals are housed individually and receive feed and water ad libitum. The thus-produced arthritis is allowed to develop without treatment during 21 days. Then on the one hand the body weight of the animals is determined and on the other hand the volumes of their two hind paws (by immersing the paws in a mercury plethysmograph up to the height of the lateral malleolus). Thereupon, the animals are divided into groups each comprising six animals in each case of approximately the same average volumes of the hind paws. The substance to be investigated is then administered to them by intubation each day over a period of 7 days. At the end of the treatment period, body weight and volumes of the hind paws are again determined and the changes over the treatment period is calculated. Subsequently, the animals are killed and plasma samples are removed from them in order to determine the fibrinogen in accordance with Exner et al., 1979 (Amer. J. Clin. Path.) after precipitation with ammonium sulfate.
The results determined for three representative compounds of formula I, in the animal test described hereinbefore, are set forth in the following Table I.

SMILES | % Chance compared with controls, Exudate volume ([1]; 30 mg/kg p.o.) | % Chance compared with controls, Number of cells ([1]; 30 mg/kg p.o.) | % Chance compared with controls, Exudate volume ([1]; 100 mg/kg p.o.) | % Chance compared with controls, Number of cells ([1]; 100 mg/kg p.o.) | LD50 [2] | Paw volume change ([3]; 66 μmol/kg) | Body weight change ([3]; 66 μmol/kg) | Plasma Fibrinogen ([3]; 66 μmol/kg) | Paw volume change ([3]; 22 μmol/kg) | Body weight change ([3]; 22 μmol/kg) | Plasma Fibrinogen ([3]; 22 μmol/kg) | % Chance compared with controls, Exudate volume ([1]; 50 mg/kg p.o.) | % Chance compared with controls, Number of cells ([1]; 50 mg/kg p.o.)
CCCc1nccn1NCc1cc(C(C)(C)C)c(O)c(C(C)(C)C)c1 [E, 1-(4-hydroxy-3,5-di-tert.butylbenzylamino)-2-propylimidazole] | -39% | +4% | -73% | -21% |  |  |  |  |  |  |  |  | 
CC(C)(C)c1cc(C=Nn2ccnc2)cc(C(C)(C)C)c1O [C, 1-(4-hydroxy-3,5-di-tert.-butylbenzylideneamino)imidazole] |  |  |  |  | > 1000 mg/kg | -0.92 ± 0.08 mL | 31.2 ± 2.0 g | 544 ± 97 mg/dL |  |  |  |  | 
Cc1nccn1N=Cc1cc(C(C)(C)C)c(O)c(C(C)(C)C)c1 [B, 1-(4-hydroxy-3,5-di-tert.butylbenzylideneamino)-2-methylimidazole] |  |  |  |  | > 1000 mg/kg | -0.84 ± 0.12 mL | 35.3 ± 1.8 g | 75 ± 15 mg/dL | -0.77 ± 0.05 mL | 28.2 ± 1.4 g | 405 ± 126 mg/dL |  | 
CC(C)(C)c1cc(CNn2ccnc2)cc(C(C)(C)C)c1O [Compound A, 1-(4-Hydroxy-3,5-di-tert.butylbenzylamino)imidazole] | -51% | -12% | -68% | -23% | > 1000 mg/kg | -0.18 ± 0.08 mL | 30.5 ± 1.2 g | 1040 ± 75 mg/dL |  |  |  | -60% | -14%
Cc1nccn1NCc1cc(C(C)(C)C)c(O)c(C(C)(C)C)c1 [D, 1-(4-hydroxy-3,5-di-tert.-butylbenzylamino)-2-methylimidazole] | -29% | -6% | -60% | -22% |  |  |  |  |  |  |  |  | 
